Measured values published in the CheMixHub viscosity set.

Assay: xn = mol fraction of the nth substance listed

NNc1ccccc1 + COc1ccccc1O
303.15 K, 101 kPa
Settings | viscosity [mPa·s]
x1 = 0.1 | 5.95
x1 = 0.2 | 8.21
x1 = 0.3 | 10.92
x1 = 0.4 | 13.15
x1 = 0.45 | 14.65
x1 = 0.5 | 15.26
x1 = 0.6 | 15.77
x1 = 0.667 | 16.06
x1 = 0.7 | 15.54
x1 = 0.8 | 14.08
x1 = 0.9 | 12.33

Nc1cccc2ccccc12 + CCCO
viscosity [mPa·s], 101 kPa
Settings | x1 = 0.02914 | x1 = 0.0566 | x1 = 0.1072 | x1 = 0.1525 | x1 = 0.1936 | x1 = 0.2308 | x1 = 0.2648
293.15 K | 2.371 | 2.516 | 2.846 | 3.22 | 3.628 | 4.054 | 4.498
303.15 K | 1.836 | 1.937 | 2.154 | 2.392 | 2.662 | 2.931 | 3.222
313.15 K | 1.445 | 1.518 | 1.674 | 1.839 | 2.02 | 2.211 | 2.403
323.15 K | 1.153 | 1.21 | 1.324 | 1.443 | 1.57 | 1.7 | 1.838

CCCOCCO + OCCOCCO
101 kPa
Settings | viscosity [mPa·s]
293.15 K, x1 = 0.0522 | 34.91
293.15 K, x1 = 0.1049 | 31.33
293.15 K, x1 = 0.2035 | 25.38
293.15 K, x1 = 0.2926 | 20.65
293.15 K, x1 = 0.3996 | 15.84
293.15 K, x1 = 0.4555 | 13.73
293.15 K, x1 = 0.4975 | 12.32
293.15 K, x1 = 0.5488 | 10.8
293.15 K, x1 = 0.5924 | 9.666
293.15 K, x1 = 0.7043 | 7.291
293.15 K, x1 = 0.7921 | 5.699
293.15 K, x1 = 0.9015 | 3.905
293.15 K, x1 = 0.9536 | 3.147
298.15 K, x1 = 0.053 | 26.82
298.15 K, x1 = 0.1014 | 24.15
298.15 K, x1 = 0.1985 | 19.48
298.15 K, x1 = 0.3104 | 15.16
298.15 K, x1 = 0.4057 | 12.25
298.15 K, x1 = 0.4511 | 11.07
298.15 K, x1 = 0.4975 | 9.977
298.15 K, x1 = 0.5511 | 8.842
298.15 K, x1 = 0.6049 | 7.816
298.15 K, x1 = 0.6981 | 6.239
298.15 K, x1 = 0.8017 | 4.717
298.15 K, x1 = 0.89 | 3.562
298.15 K, x1 = 0.9483 | 2.89
303.15 K, x1 = 0.0608 | 19.27
303.15 K, x1 = 0.1099 | 17.35
303.15 K, x1 = 0.1927 | 14.48
303.15 K, x1 = 0.3017 | 11.38
303.15 K, x1 = 0.3982 | 9.174
303.15 K, x1 = 0.4498 | 8.171
303.15 K, x1 = 0.4916 | 7.433
303.15 K, x1 = 0.5511 | 6.487
303.15 K, x1 = 0.6073 | 5.701
303.15 K, x1 = 0.7083 | 4.5
303.15 K, x1 = 0.7941 | 3.671
303.15 K, x1 = 0.9072 | 2.776
303.15 K, x1 = 0.9353 | 2.579

C[N+](C)(C)C.NCC(=O)[O-] + OCCO
303 K, 101 kPa
Settings | viscosity [mPa·s]
x1 = 0.044 | 46.5
x1 = 0.095 | 75.2
x1 = 0.15 | 103.9
x1 = 0.22 | 138
x1 = 0.39 | 185.9
x1 = 0.63 | 251.5

Nc1cccc2ccccc12 + CCO
viscosity [mPa·s], 101 kPa
Settings | x1 = 0.0225 | x1 = 0.04399 | x1 = 0.08427 | x1 = 0.1213 | x1 = 0.1554 | x1 = 0.187 | x1 = 0.2163
293.15 K | 1.348 | 1.454 | 1.7 | 1.987 | 2.308 | 2.667 | 3.025
303.15 K | 1.094 | 1.176 | 1.362 | 1.56 | 1.786 | 2.029 | 2.27
313.15 K | 0.903 | 0.966 | 1.104 | 1.251 | 1.41 | 1.587 | 1.759
323.15 K | 0.745 | 0.791 | 0.899 | 1.006 | 1.121 | 1.254 | 1.377

CCCOCCO + CC(C)O
298.15 K, 101.33 kPa
Settings | viscosity [mPa·s]
x1 = 0.0175 | 2.056
x1 = 0.0326 | 2.039
x1 = 0.0724 | 2.009
x1 = 0.0909 | 1.994
x1 = 0.1266 | 1.98
x1 = 0.1696 | 1.971
x1 = 0.2052 | 1.967
x1 = 0.249 | 1.967
x1 = 0.295 | 1.97
x1 = 0.3499 | 1.977
x1 = 0.398 | 1.993
x1 = 0.4072 | 1.997
x1 = 0.4661 | 2.019
x1 = 0.5167 | 2.041
x1 = 0.556 | 2.061
x1 = 0.6058 | 2.084
x1 = 0.6612 | 2.119
x1 = 0.7297 | 2.159
x1 = 0.7751 | 2.192
x1 = 0.8315 | 2.23
x1 = 0.8979 | 2.275
x1 = 0.9565 | 2.318

C[n+]1ccn(CCc2ccccc2)c1.[Cl][Al-]([Cl])([Cl])[Cl] + CCCC[n+]1ccn(C)c1.[Cl][Al-]([Cl])([Cl])[Cl]
viscosity [mPa·s], 101 kPa
Settings | 293.15 K | 298.15 K | 303.15 K | 308.15 K | 313.15 K | 318.15 K | 323.15 K
x2 = 0.5 | 92.4 | 74.8 | 60.6 | 50.1 | 41.7 | 36.4 | 32.1
x2 = 0.6 | 75.1 | 60 | 50.6 | 41.6 | 35.6 | 30.4 | 27

CCCOCCO + CCCN
viscosity [mPa·s], 101.33 kPa
Settings | 298.15 K | 308.15 K | 318.15 K
x1 = 0.0069 | 0.365 | 0.336 | 0.296
x1 = 0.0201 | 0.383 | 0.346 | 0.307
x1 = 0.054 | 0.429 | 0.385 | 0.335
x1 = 0.1049 | 0.509 | 0.446 | 0.382
x1 = 0.1955 | 0.678 | 0.574 | 0.481
x1 = 0.2496 | 0.797 | 0.668 | 0.55
x1 = 0.3215 | 0.969 | 0.8 | 0.655
x1 = 0.3686 | 1.103 | 0.895 | 0.722
x1 = 0.4528 | 1.338 | 1.075 | 0.853
x1 = 0.4581 | 1.355 | 1.088 | 0.862
x1 = 0.5595 | 1.629 | 1.289 | 1.015
x1 = 0.6789 | 1.925 | 1.51 | 1.175
x1 = 0.752 | 2.082 | 1.628 | 1.265
x1 = 0.8162 | 2.191 | 1.715 | 1.32
x1 = 0.8943 | 2.282 | 1.803 | 1.385
x1 = 0.9697 | 2.333 | 1.867 | 1.435
